In patent US20260107927A1, “ZEBRAFISH ANIMAL MODEL FOR INFLAMMATORY DISEASES AND METHOD FOR SCREEING ANTI-INFLAMMATORY AGENTS USING SAME” (RAYDEL KOREA CO., LTD., priority 2022, published 2026):

Tests used:
serum amyloid A (SAA) = assay: Plasma serum amyloid A after CML with or without test substances; format: in vivo, zebrafish (Danio rerio); conditions: FIG. 16
Protocol: (§1) Blood was collected from zebrafish in each group, plasma was isolated, and total cholesterol (TC) and triglyceride (TG) were analyzed. Blood was collected from zebrafish in each group, plasma was isolated, and serum amyloid A (SAA), a biomarker of hepatitis induction, interleukin-6 (IL-6), a factor that induces an acute cytokine storm in the liver, and tumor necrosis factor-α (TNF-α), an inflammatory cytokine involved in liver inflammation were analyzed.

zebrafish embryos [1] = assay: CML microinjection into zebrafish embryos: survival rate and embryo development; format: in vivo, zebrafish (Danio rerio)
Protocol: The present inventors constructed a zebrafish embryonic animal model microinjected with CML to establish an acute cytokine storm induction system. After confirming under a microscope that the freshly spawned zebrafish embryos were 30 minutes post-fertilization (0.5 hour post fertilization (0.5 hpf)), the fertilized embryos that were dividing normally were selected. […] The tip of the needle was sharpened by cutting it diagonally using a sharp forcep, a hole was made, and 5 μL of injection cocktail solution was added to the microglass needle.
(§2) Eggs were densely packed and arranged at appropriate intervals on a 1% agarose gel with grooves of appropriate spacing to facilitate rapid microinjection. A microglass needle was attached to a microinjector (PV-830, World Precision Instruments, Sarasota, FL, USA), 5 μL of mineral oil was spread on a graduated hematocytometer, the needle was placed on top of it, and the contents were injected. The size of the bubble formed was measured and calibrated to the desired volume, after which it was injected into zebrafish embryos at the 2-cell and 4-cell stages.
(§3) At this time, in order to minimize errors in the microinjection process, microinjection was performed as much as possible into the yolk area. After microinjection, the embryos were separated from the agarose gel and placed in a Petri dish, which was then filled with 20 mL of egg water (0.02 mg/L methylene blue) and stored at 28° C.
To compare the survival rates of zebrafish embryos, the inventors prepared a non-injected group (No injection), a PBS-injected control group (PBS control), and a CML-injected group.

[2] = test system: liver tissue of zebrafish adults; assay: Hematoxylin-eosin (H&E) staining of liver tissue: inflammatory cell infiltration; format: in vivo, zebrafish (Danio rerio)
Protocol: To compare the degree of acute cytokine storm induction by CML and alleviation, hematoxylin-eosin (H&E) staining was performed on zebrafish adults of the PBS-injected and CML-injected groups, and the degree of inflammatory cell infiltration in the liver tissue was investigated.
That is, the inhibitory effect of the IL-6 inhibitor Actemra (Tocilizumab) on inflammation caused by CML-induced glycation toxicity was greater than that of the TNF-α inhibitor Remsima (Infliximab).

zebrafish adults [3] = assay: Intraperitoneal CML plus test substances in zebrafish adults: recovery of swimming ability and survival; format: in vivo, zebrafish (Danio rerio); conditions: for swimming ability compared with CML injected group / recovery of ability to swim compared with CML injected group: co-injected with CML; for swimming ability compared with CML injected group: 30 minutes after injection; for survival rate of zebrafish adults: combined treatment with CML, FIG. 11
Excerpt: The cytokine storm suppression ability of the test substances was compared by confirming the swimming ability of zebrafish of the groups injected with PBS, CML, CML and Remsima (Infliximab), and CML and Actemra (Tocilizumab) via intraperitoneal administration (FIG. 9).
The effects of the test substances in the CML and Remsima (Infliximab) injected group and the CML and Actemra (Tocilizumab) injected group were compared.

zebrafish adults [4] = assay: Plasma total cholesterol (TC) and triglyceride (TG) after CML with or without test substances; format: in vivo, zebrafish (Danio rerio); conditions: for plasma triglyceride (TG) concentration: FIG. 15
Protocol: Zebrafish adults were treated with CML at a concentration of 3 mM, and Actemra (Tocilizumab) and Remsima (Infliximab) were simultaneously treated to confirm the effects of the test substances on reducing total cholesterol (TC) and triglyceride (TG).
Blood was collected from zebrafish in each group, plasma was isolated, and total cholesterol (TC) and triglyceride (TG) were analyzed.

interleukin-6 (IL-6) = assay: Plasma interleukin-6 after CML with or without test substances; format: in vivo, zebrafish (Danio rerio); conditions: FIG. 17
Protocol: as §1

zebrafish adults [5] = assay: Intraperitoneal CML injection into zebrafish adults: swimming ability, acute paralysis, survival
Protocol: Movements of 10 zebrafish adults (16±3 weeks old) injected intraperitoneally with CML (250 μg, 10 μL) solution (final conc. of CML: 3 mM) and 10 zebrafish adults injected with PBS were observed 30 minutes and 1 hour after injection.

[6] = test system: tumor necrosis factor-α (TNF-α); assay: Plasma tumor necrosis factor-α after CML with or without test substances; format: in vivo, zebrafish (Danio rerio); conditions: FIG. 18
Protocol: as §1

zebrafish embryos [7] = assay: Combined microinjection of CML with test substances into zebrafish embryos: survival rate and development; format: in vivo, zebrafish (Danio rerio); conditions: for survival rate of embryos: co-injected with 500 ng CML, 43 ng Remsima or 44 ng Actemra, after 24 hours, FIG. 3; for rate of development: co-injected with CML, 25 hours post-injection; for rate of development / developmental defects: FIG. 4; for developmental defects: microinjected mixture with CML
Protocol: The present inventors constructed a zebrafish embryonic animal model microinjected with CML to establish an acute cytokine storm induction system. After confirming under a microscope that the freshly spawned zebrafish embryos were 30 minutes post-fertilization (0.5 hour post fertilization (0.5 hpf)), the fertilized embryos that were dividing normally were selected. A capillary glass tube (TW100F-4, World Precision Instruments, Sarasota, FL, USA) was inserted into a micro-glass needle maker (PC-10, Narishege, Tokyo, Japan), and the coil was adjusted to be in the center of the capillary glass tube, and then a needle was made at a temperature of 71.3° C. The tip of the needle was sharpened by cutting it diagonally using a sharp forcep, a hole was made, and 5 μL of injection cocktail solution was added to the microglass needle.
as §2
as §3, with “C. All injection processes were performed under a stereomicroscope (SMZ-168, Motic, Hong Kong) at 20× magnification.” for “C.”

[8] = CML-injected embryos, about 25 hours post-fertilization
[9] = treated simultaneously with CML
[10] = treated simultaneously with CML, FIGS. 12 and 13
[11] = intraperitoneal, 1 hour after injection, FIG. 9

Compound	survival rate of embryos (zebrafish embryos [7]) [%]	rate of development (zebrafish embryos [7])	developmental defects (zebrafish embryos [7])	serum amyloid A (SAA) (serum amyloid A (SAA); [9]) [ng/mL]	inflammatory cell infiltration in liver tissue [2, 10]	swimming ability compared with CML injected group (zebrafish adults [3]; intraperitoneal, FIG. 9)	recovery of ability to swim compared with CML injected group (zebrafish adults [3]; [11])	survival rate of zebrafish adults (zebrafish adults [3])	IL-6 (interleukin-6 (IL-6); [9]) [pg/mL]	TNF-α [6, 9] [ng/mL]	also measured
N[C@@H](CCCCNCC(=O)O)C(=O)O [CML, N-ε-carboxymethyllysine]											serum amyloid A (SAA) (serum amyloid A (SAA); CML alone): 59.7 ± 1.6 ng/mL; survival rate of zebrafish embryos (zebrafish embryos [1]; 500 ng CML microinjected (20 nL, 25 mg/mL in PBS), 24 hours, FIG. 1): 23.5%; developmental stage of embryos (zebrafish embryos [1]; 25 hours after CML injection, FIG. 2): 21-somite stage; developmental morphology (zebrafish embryos [1]; CML-injected embryos): developmental malformations were present in the head and tail; developmental state, equivalent time after fertilization (zebrafish embryos [1]; [8]): about 19.5 hours after fertilization; number of somites (zebrafish embryos [1]; [8]): about 21; inflammatory cell infiltration in liver tissue ([2]; CML alone, FIGS. 12 and 13): approximately 23%; inflammatory cell infiltration in liver tissue ([2]; CML only injection group, FIG. 8): 27%; number of zebrafish showing recovery of swimming ability (zebrafish adults [3]; CML group, 3 mM intraperitoneal, 1 hour after injection, FIG. 9): 2 to 3; plasma total cholesterol (TC) concentration (zebrafish adults [4]; CML alone, 3 mM, FIG. 14): highest; plasma triglyceride (TG) concentration (zebrafish adults [4]; CML alone, 3 mM): highest; IL-6 (interleukin-6 (IL-6); CML alone): 76.4 ± 6.1 pg/mL; zebrafish that recovered the ability to swim (zebrafish adults [5]; CML 250 μg intraperitoneal (final 3 mM), 1 hour after injection, FIGS. 5 and 6): 25%; movement / swimming ability (zebrafish adults [5]; CML 250 μg, 10 μL intraperitoneal (final 3 mM), first 30 minutes after injection): immobilized and lying on the bottom; survival rate of zebrafish adults (zebrafish adults [5]; CML alone, intraperitoneal, after 60 minutes, FIG. 8): less than 49%; TNF-α ([6]; CML alone): 43.5 ± 0.4 ng/mL
Actemra: biopharmaceutical, an IL-6 inhibitor, used as treatment agent for rheumatoid arthritis	53.1	almost the same rate of development as embryos injected with PBS	no developmental defects were observed	38.8 ± 2.0	15-17%	More zebrafish	more zebrafish had regained the ability to swim	approximately 97%	51.8 ± 1.8	6.8 ± 2.6	recovery of swimming ability and survival rate compared with 43 μg Remsima (zebrafish adults [3]; 44 μg Actemra with CML, intraperitoneal, FIGS. 10 and 11): recovery of swimming ability was better and survival rate was increased; plasma triglyceride (TG) concentration (zebrafish adults [4]; treated simultaneously with 3 mM CML): lowest
Remsima: biopharmaceutical, a TNF-α inhibitor, used as treatment agent for rheumatoid arthritis	38.4	almost the same rate of development as embryos injected with PBS	no developmental defects were observed	41.2 ± 5.3	approximately 23%	More zebrafish	more zebrafish had regained the ability to swim	63%	62.8 ± 3.1	41.6 ± 5.8	
